Measured values taken from patent publication US12180187B2, “1-phenyl-5-azinylpyrazolyl-3-oxyalkyl acids and their use for controlling unwanted plant growth” (BAYER AKTIENGESELLSCHAFT, priority 2019, dated 2024).

What was measured:
POAAN [1] = experiment: Post-emergence action against POAAN, 1.28 kg/ha; assay type: in vivo, Poa annua; conditions: dosage 1280 g/ha, visual rating about 3 weeks after treatment vs untreated controls
Procedure: (§1) • a) Seeds of mono- and dicotyledonous weed plants are placed in plastic pots in sandy loam soil (twin sowing with one species each of mono- or dicotyledonous weed plants per pot), covered with soil and cultivated in a greenhouse under controlled growth conditions. 2 to 3 weeks after sowing, the test plants are treated at the one-leaf stage. The compounds of the invention, formulated in the form of wettable powders (WP) or as emulsion concentrates (EC), are applied to the green parts of the plants as aqueous suspension or emulsion with addition of 0.5% additive at a water application rate equivalent to 600 litres per hectare. After the test plants have been kept in the greenhouse under optimum growth conditions for about 3 weeks, the activity of the preparations is rated visually in comparison to untreated controls. For example, 100% activity=the plants have died, 0% activity=like control plants. As shown by the results, compounds of the general formula (I) of the invention, in post-emergence treatment, have very good herbicidal efficacy (90% to 100% herbicidal action) against harmful plants such as Abutilon theophrasti, Digitaria sanguinalis, Echinochloa crus-galli, Matricaria inodora, Poa annua, at an application rate of 1.28 kg of active substance per hectare.

MATIN [2] = experiment: Pre-emergence action against MATIN, 1280 g/ha; assay type: in vivo, Tripleurospermum inodorum (Matricaria inodora); conditions: scored visually after about 3 weeks vs untreated controls (100% = plants have died)
Excerpt: (§2) 1. Pre-Emergence Herbicidal Effect and Crop Plant Compatibility a) Seeds of mono- and dicotyledonous weed plants are placed in plastic pots in sandy loam soil (doubly sown with one species each of mono- or dicotyledonous weed plants per pot) and covered with soil. The compounds of the invention, formulated in the form of wettable powders (WP) or as emulsion concentrates (EC), are then applied onto the surface of the covering soil as aqueous suspension or emulsion with addition of 0.5% additive at a water application rate equivalent to 600 litres per hectare. After the treatment, the pots are placed in a greenhouse and kept under good growth conditions for the trial plants. After about 3 weeks, the effect of the preparations is scored visually in comparison with untreated controls as percentages. For example, 100% activity=the plants have died, 0% activity=like control plants. 1. Pre-Emergence Effectiveness Tables 1 to 12 below show the effects of selected compounds of the general formula (I) according to Tables 1 and 2 on various harmful plants and at an application rate corresponding to 1280 g/ha, which were obtained by the experimental procedure mentioned above.

AMARE [3] = experiment: Pre-emergence action against AMARE, 1280 g/ha; assay type: in vivo, Amaranthus retroflexus; conditions: scored visually after about 3 weeks vs untreated controls (100% = plants have died)
Excerpt: as §2

SETVI = experiment: Pre-emergence action against SETVI, 1280 g/ha; assay type: in vivo, Setaria viridis; conditions: visual scoring after about 3 weeks vs untreated controls, 100% = plants have died, 0% = like control plants
Excerpt: as §2

MATIN [4] = experiment: Post-emergence action against MATIN, 1.28 kg/ha; assay type: in vivo, Tripleurospermum inodorum (Matricaria inodora); conditions: dosage 1280 g/ha, visual rating about 3 weeks after treatment vs untreated controls (100% = plants died)
Procedure: as §1

ABUTH = experiment: Post-emergence action against ABUTH, 1.28 kg/ha; assay type: in vivo, Abutilon theophrasti; conditions: dosage 1280 g/ha, visual rating about 3 weeks after treatment vs untreated controls (100% = plants died)
Procedure: as §1

LOLRI = experiment: Pre-emergence action against LOLRI, 1280 g/ha; assay type: in vivo, Lolium rigidum; conditions: visual scoring after about 3 weeks vs untreated controls, 100% = plants have died, 0% = like control plants
Excerpt: as §2

AMARE [5] = experiment: Post-emergence action against AMARE, 1.28 kg/ha; assay type: in vivo, Amaranthus retroflexus; conditions: dosage 1280 g/ha, visual rating about 3 weeks after treatment vs untreated controls (100% = plants died)
Procedure: as §1

STEME = experiment: Pre-emergence action against STEME, 1280 g/ha; assay type: in vivo, Stellaria media; conditions: scored visually after about 3 weeks vs untreated controls (100% = plants have died)
Excerpt: as §2

ECHCG [6] = experiment: Pre-emergence action against ECHCG, 1280 g/ha; assay type: in vivo, Echinochloa crus-galli; conditions: visual scoring after about 3 weeks vs untreated controls, 100% = plants have died, 0% = like control plants
Excerpt: as §2

POAAN [7] = experiment: Pre-emergence action against POAAN, 1280 g/ha; assay type: in vivo, Poa annua; conditions: visual scoring after about 3 weeks vs untreated controls, 100% = plants have died, 0% = like control plants
Excerpt: as §2

VERPE [8] = experiment: Post-emergence action against VERPE, 1.28 kg/ha; assay type: in vivo, Veronica persica; conditions: dosage 1280 g/ha, visual rating about 3 weeks after treatment vs untreated controls (100% = plants died)
Procedure: as §1

DIGSA [9] = experiment: Pre-emergence action against DIGSA, 1280 g/ha; assay type: in vivo, Digitaria sanguinalis; conditions: visual scoring after about 3 weeks vs untreated controls, 100% = plants have died, 0% = like control plants
Excerpt: as §2

VERPE [10] = experiment: Pre-emergence action against VERPE, 1280 g/ha; assay type: in vivo, Veronica persica; conditions: scored visually after about 3 weeks vs untreated controls (100% = plants have died)
Excerpt: as §2

ECHCG [11] = experiment: Post-emergence action against ECHCG, 1.28 kg/ha; assay type: in vivo, Echinochloa crus-galli; conditions: dosage 1280 g/ha, visual rating about 3 weeks after treatment vs untreated controls
Procedure: as §1

VIOTR = experiment: Pre-emergence action at 320 g/ha against VIOTR; assay type: in vivo, Viola tricolor; conditions: dosage 320 g/ha
Excerpt: b) Seeds of monocotyledonous and dicotyledonous weed plants and crop plants are placed in plastic or organic planting pots and covered with soil. The compounds of the invention, formulated in the form of wettable powders (WP) or as emulsion concentrates (EC), are then applied onto the surface of the covering soil as aqueous suspension or emulsion with addition of 0.5% additive at a water application rate of 600 l/ha (converted). After the treatment, the pots are placed in a greenhouse and kept under good growth conditions for the trial plants. After about 3 weeks, the effect of the preparations is scored visually in comparison with untreated controls as percentages. For example, 100% activity=the plants have died, 0% activity=like control plants. Tables 13 to 26 below show the effects of selected compounds of the general formula (I) on various harmful plants and at an application rate corresponding to 320 g/ha, which were obtained by the experimental procedure mentioned above.

ALOMY [12] = experiment: Pre-emergence action against ALOMY, 1280 g/ha; assay type: in vivo, Alopecurus myosuroides; conditions: visual scoring after about 3 weeks vs untreated controls, 100% = plants have died, 0% = like control plants
Excerpt: as §2

DIGSA [13] = experiment: Post-emergence action against DIGSA, 1.28 kg/ha; assay type: in vivo, Digitaria sanguinalis; conditions: dosage 1280 g/ha, visual rating about 3 weeks after treatment vs untreated controls
Procedure: as §1

ALOMY [14] = experiment: Post-emergence action against ALOMY, 1.28 kg/ha; assay type: in vivo, Alopecurus myosuroides; conditions: dosage 1280 g/ha, visual rating about 3 weeks after treatment vs untreated controls
Procedure: as §1

| SMILES | Post-emergence action against POAAN (POAAN [1]) | Pre-emergence action against MATIN (MATIN [2]) | Pre-emergence action against AMARE (AMARE [3]) | Pre-emergence action against SETVI (SETVI) | Post-emergence action against MATIN (MATIN [4]) | Post-emergence action against ABUTH (ABUTH) | Pre-emergence action against LOLRI (LOLRI) | Post-emergence action against AMARE (AMARE [5]) | Pre-emergence action against STEME (STEME) | Pre-emergence action against ECHCG (ECHCG [6]) | Pre-emergence action against POAAN (POAAN [7]) | Post-emergence action against VERPE (VERPE [8]) | Pre-emergence action against DIGSA (DIGSA [9]) | Pre-emergence action against VERPE (VERPE [10]) | Post-emergence action against ECHCG (ECHCG [11]) | Pre-emergence action against VIOTR in % (VIOTR) | Pre-emergence action against ALOMY (ALOMY [12]) | Post-emergence action against DIGSA (DIGSA [13]) | Post-emergence action against ALOMY (ALOMY [14]) |
| --- | --- | --- | --- | --- | --- | --- | --- | --- | --- | --- | --- | --- | --- | --- | --- | --- | --- | --- | --- |
| O=C(O)COc1nn(-c2ccccc2F)c(-c2cnccn2)c1Br [Example I-003] | 100% | 90% | 90% | 90% | 90% | 90% | 90% | 100% | 100% | 90% | 100% | 90% | 90% | 90% | 90% | – | – | – | – |
| COC(=O)C1CCCN(C(=O)COc2nn(-c3ccccc3F)c(-c3ccc(F)nc3)c2Br)C1 (stereo not shown) [Example X-018] | – | – | – | – | – | – | – | – | – | – | – | – | – | – | – | 90% | – | – | – |
| O=C(O)C1CCCN(C(=O)COc2nn(-c3ccccc3F)c(-c3cncc(F)c3)c2Br)C1 (stereo not shown) [Example X-033] | 100% | 90% | 90% | 90% | 100% | – | – | 100% | 90% | – | 100% | 100% | 90% | 90% | – | – | 90% | 90% | 100% |
| CONC(=O)COc1nn(-c2ccccc2F)c(-c2ccc(F)cn2)c1Br [II-003] | 100% | 100% | 100% | 100% | 90% | 90% | 100% | – | 90% | 100% | 100% | 100% | 100% | – | – | – | – | – | 100% |
